# Assay results reported in patent US11306095B2 (EAST CHINA UNIVERSITY OF SCIENCE AND TECHNOLOGY, priority 2015, dated 2022).
# How the values were obtained:
# EGFR-L858R/T790M = biological target: T1, EGFR-L858R/T790M (Homo sapiens, UniProt P00533, L858R/T790M); assay: Kinase activity test (FRET), EGFR T790M/L858R; type: biochemical; conditions: EGFR T790M/L858R; read-out: Inhibitory activity of EGFR on kinase (IC50, nM) T790M/L858R
# T1 construct: purchased Invitrogen PV4879
# Description: (§1) EGFR-TK catalyses transfer of one phosphate group of adenosine triphosphate (ATP) to polypeptide substrate, poly(Glu, Tyr)4:1, which is labeled with two fluorescent groups coumarin and fluorescein.
# (§2) 2.5 μL of Test Compounds, 5 μL Kinase/Peptide Substrate Mixture, 2.5 μL ATP Solution were added into a 384-well plate, and the 10 μL of reaction system was shaken for 30 s and incubated at room temperature for 1 h. 5 μL of Development Solution was added and the 15 μL of reaction system was shaken for 30 s, and incubated at room temperature for 1 h. […] The inhibitory rates of the compounds at 7 concentration gradients were determined and the IC50 value for each compound was calculated by Origin 8.0 fitting curve.
# (§3) 10 concentration gradients from 5.1×10^−11 mol/L to 1.0×10^−6 mol/L were set for all compounds to be tested.
# (§4) Compounds were diluted in DMSO for three times from 5.1×10^−9 M to 1×10^−4 M. 4 μL of the compound was dissolved in 96 μL of water to obtain a 4× compound solution. […] The 10 μL kinase reaction consisted of 2.5 μL compound solution, 5 μL kinase/peptide mix, 2.5 μL ATP solution. […] 5 μL of phosphorylated peptide solution, instead of the kinase/peptide mixture, was used as a 100% phosphorylation control. […] The plates were thoroughly mixed and incubated at room temperature for 1.5 hours. 5 μL of Development Solution was added into each well and then incubated for another 1 hour at room temperature, unphosphorylated peptides were cleaved during this period. Finally, 5 μL Stop Reagent was added to quench the reaction. The plates were measured with EnVision Multilabel Reader (Perkin Elmer). The experimental data were calculated using GraphPad Prism version 4.0. Each experiment was repeated more than 3 times.
# [1] = Determination of solubility in water (PBS 20 mM, pH 6.8); type: physicochemical; conditions: PBS buffer, aqueous buffer, thermodynamic from solid; pH 6.8, 20 mM PBS; read-out: Solubility (pH 6.8, g/mL)
# Description: The suspension was filtered through a 0.22 μm PVDF filter, and then diluted to an appropriate concentration with methanol (v=50%) and PBS (v=50%), and the absorbance was measured by a UV spectrophotometer. About 3 mg of compound was accurately weighed, and methanol was added for preparing a stock solution of 1 mg/mL. The above stock solution was taken and prepared into a solution at concentrations of 0.05, 0.04, 0.03, 0.02 and 0.01 mg/mL, respectively, PBS solution (v=50%) was added and the absorbance value was measured. Concentration c (mg/mL) as horizontal ordinate vs absorbance A as longitudinal coordinate was plotted, and a line was fitted for obtaining a standard curve (correlation coefficient greater than 0.998). The solubility of a compound in water was calculated from the standard curve.
# Wild type EGFR = biological target: T2, Wild type EGFR (Homo sapiens, UniProt P00533); assay: Kinase activity test (FRET), wild type EGFR; type: biochemical; conditions: wild type EGFR; read-out: Inhibitory activity of EGFR on kinase (IC50, nM) WT
# T2 construct: purchased Invitrogen PV3872
# T2 sequence (P00533 25-1210): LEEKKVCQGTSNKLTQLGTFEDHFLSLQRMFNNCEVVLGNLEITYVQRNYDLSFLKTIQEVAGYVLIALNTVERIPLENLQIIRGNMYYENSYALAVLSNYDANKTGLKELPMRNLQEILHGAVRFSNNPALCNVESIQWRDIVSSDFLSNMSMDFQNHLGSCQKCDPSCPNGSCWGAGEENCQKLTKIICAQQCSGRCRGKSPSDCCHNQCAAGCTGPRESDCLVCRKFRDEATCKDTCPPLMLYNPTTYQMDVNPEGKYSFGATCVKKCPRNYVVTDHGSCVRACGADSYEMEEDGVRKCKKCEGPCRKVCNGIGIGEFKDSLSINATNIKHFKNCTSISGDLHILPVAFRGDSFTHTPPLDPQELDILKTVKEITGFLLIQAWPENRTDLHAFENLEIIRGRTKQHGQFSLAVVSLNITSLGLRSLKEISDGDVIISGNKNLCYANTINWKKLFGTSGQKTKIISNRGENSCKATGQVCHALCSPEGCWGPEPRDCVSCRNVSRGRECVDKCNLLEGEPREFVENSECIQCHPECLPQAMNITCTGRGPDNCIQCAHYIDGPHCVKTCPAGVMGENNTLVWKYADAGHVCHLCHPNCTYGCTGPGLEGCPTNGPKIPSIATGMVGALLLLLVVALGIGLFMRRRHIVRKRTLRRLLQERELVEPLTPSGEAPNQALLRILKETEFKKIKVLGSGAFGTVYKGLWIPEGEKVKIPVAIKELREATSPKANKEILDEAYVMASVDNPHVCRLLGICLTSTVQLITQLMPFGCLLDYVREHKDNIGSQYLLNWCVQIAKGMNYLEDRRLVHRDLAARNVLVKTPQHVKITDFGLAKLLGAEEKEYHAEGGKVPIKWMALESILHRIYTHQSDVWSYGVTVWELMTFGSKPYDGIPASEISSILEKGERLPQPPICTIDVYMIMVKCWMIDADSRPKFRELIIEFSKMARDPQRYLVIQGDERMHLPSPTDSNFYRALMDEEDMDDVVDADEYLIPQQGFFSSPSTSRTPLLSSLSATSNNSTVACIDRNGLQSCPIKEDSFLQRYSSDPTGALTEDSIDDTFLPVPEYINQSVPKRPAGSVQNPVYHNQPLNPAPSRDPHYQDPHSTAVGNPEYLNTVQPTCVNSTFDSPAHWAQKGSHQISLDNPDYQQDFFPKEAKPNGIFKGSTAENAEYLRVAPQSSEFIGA
# Description: as §1, §2, §3, §4
# [2] = tested on: A431 cells (EGFR wild type); assay: Inhibitory activity on cell proliferation, A431; type: cell-based; conditions: Homo sapiens, A-431; A431, 72 hours; read-out: Inhibitory activity on proliferation of cells (IC50, μM) A431
# Description: (§5) Cell proliferation activity was assessed by MTS assay. Cells were exposed to processing conditions for 72 hours and the number of cells used in each experiment for each cell line was adjusted based on absorbance values (absorbance values at 490 nm, 1.3-2.2). Six concentration gradients (0.1 nM-10 μM) were set for the compounds to be tested, wherein at least 6 sets of parallel controls for each concentration were used.
# (§6) H1975, A431 cells were cultured in corresponding media, and cells were passaged at least twice after resuscitation and then used for experiments. Cells at Log phase were trypsinized and resuspended in culture medium. H1975 (1000 cells per well), A431 (2000 cells per well) were seeded in 96-well plates in a volume of 100 μL; and 6 sets of parallel controls and 7 columns were set. The plate was placed in a 37° C. 5% CO2 incubator overnight. Compounds were dissolved in DMSO to a concentration of […], and then the concentration was gradually diluted to 10 μM, 1 μM, 0.1 μM, 0.01 μM, 0.001 μM, 0.0001 μM per liter, respectively. 2 μL of the compound solution was added to 998 μL of medium, and the mixture was thoroughly mixed. 100 μL of the mixture was added to a 96-well plate. […] After culturing for 68 hours, 20 μL of MTT (5 mg/mL) was added. After 4 hours, the supernatant was discarded and 150 μL of DMSO was added. After shaking for 10 minutes, the plate was read with Synergy HT (Bio TeK) (OD490). Data were calculated using GraphPad Prism version 4.0 and IC50 values were obtained using a non-linear regression model of dose response curve.
# [3] = tested on: H1975 cells (EGFR L858R/T790M); assay: Inhibitory activity on cell proliferation, H1975; type: cell-based; conditions: Homo sapiens, NCI-H1975; H1975, 72 hours; read-out: Inhibitory activity on proliferation of cells (IC50, μM) H1975
# Description: as §5, §6
# T1 sequence (P00533 25-1210 T790M/L858R): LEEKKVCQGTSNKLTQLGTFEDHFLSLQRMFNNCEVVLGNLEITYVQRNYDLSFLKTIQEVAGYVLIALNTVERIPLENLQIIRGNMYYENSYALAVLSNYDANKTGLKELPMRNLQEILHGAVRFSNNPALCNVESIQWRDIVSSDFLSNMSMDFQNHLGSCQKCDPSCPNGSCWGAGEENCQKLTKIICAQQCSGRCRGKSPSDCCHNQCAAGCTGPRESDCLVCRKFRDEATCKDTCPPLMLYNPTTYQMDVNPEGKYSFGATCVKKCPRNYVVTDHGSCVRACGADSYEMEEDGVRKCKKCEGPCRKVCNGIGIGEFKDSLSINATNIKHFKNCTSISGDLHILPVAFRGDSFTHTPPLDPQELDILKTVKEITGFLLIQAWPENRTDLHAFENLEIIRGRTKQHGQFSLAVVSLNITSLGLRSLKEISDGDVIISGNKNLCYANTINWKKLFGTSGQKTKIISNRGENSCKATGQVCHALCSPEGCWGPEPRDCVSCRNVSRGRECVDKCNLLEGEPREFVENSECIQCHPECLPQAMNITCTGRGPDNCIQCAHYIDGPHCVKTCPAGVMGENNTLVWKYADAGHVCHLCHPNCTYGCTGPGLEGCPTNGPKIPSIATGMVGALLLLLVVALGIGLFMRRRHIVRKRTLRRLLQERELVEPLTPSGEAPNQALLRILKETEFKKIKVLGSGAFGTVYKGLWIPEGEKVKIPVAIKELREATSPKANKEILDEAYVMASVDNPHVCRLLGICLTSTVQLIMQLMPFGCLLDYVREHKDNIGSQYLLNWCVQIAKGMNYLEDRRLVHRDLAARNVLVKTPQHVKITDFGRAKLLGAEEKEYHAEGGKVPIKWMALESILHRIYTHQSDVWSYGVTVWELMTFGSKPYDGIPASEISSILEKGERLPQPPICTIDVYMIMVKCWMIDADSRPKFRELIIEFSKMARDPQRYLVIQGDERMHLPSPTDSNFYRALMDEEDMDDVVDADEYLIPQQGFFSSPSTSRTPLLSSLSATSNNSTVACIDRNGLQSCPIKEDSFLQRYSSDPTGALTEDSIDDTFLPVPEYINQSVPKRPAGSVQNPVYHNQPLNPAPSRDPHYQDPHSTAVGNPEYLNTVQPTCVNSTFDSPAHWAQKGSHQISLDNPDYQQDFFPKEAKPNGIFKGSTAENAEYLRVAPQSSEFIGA
SMILES,IC50 (EGFR-L858R/T790M) [nM],solubility [1] [µg/mL],melting point [°C],IC50 (Wild type EGFR) [nM],IC50 [2] [µM],IC50 [3] [µM]
"C=CC(=O)Nc1cccc(-n2c(=O)cnc3cnc(Nc4ccc(N5CCN(C)CC5)cc4OCOC)nc32)c1 [Compound 9, N-(3-(2-((2-(methoxymethoxy)-4-(4-methyl-1-piperazinyl)phenyl)amino)-7-oxo-8(7H)-pteridinyl)phenyl)acrylamide]",20.8,163,187.3 to 188.1,23.4,2.81,1.04
"COc1cc(N2CCN(C)CC2)ccc1Nc1ncc2ncc(=O)n(C3CCN(C(=O)/C=C/CN(C)C)CC3)c2n1 [Compound 30, (E)-8-(1-(4-(dimethylamino)-2-butenoyl)-4-piperidinyl)-2-((2-methoxy-4-(4-methyl-1-piperazinyl)phenyl)amino)-7(8H)pteridinone]",> 1000,> 10,157.3 to 157.6,> 1000,> 10,8.69
COc1cc(N2CCN(C)CC2)ccc1Nc1ncc2nc(-c3ccccc3)c(=O)n([C@H]3CCN(C(=O)/C=C/CN(C)C)C3)c2n1 [Compound 31],9,63.3,253.1 to 254,522,> 10,2.16
"C=CC(=O)Nc1cccc(-n2c(=O)c(C(C)C)nc3cnc(Nc4ccc(N5CCN(C)CC5)c(OC)c4)nc32)c1 [Compound 32, N-(3-(6-isopropyl-2-((3-methoxy-4-(4-methyl-1-piperazinyl)phenyl)amino)-7-oxo-8(7H)pteridinyl)phenyl)acrylamide]",7.1,< 10,249 to 249.5,1.3,2.75,0.033
"C=CC(=O)Nc1cccc(-n2c(=O)c(C(F)(F)F)nc3cnc(Nc4ccc(N5CCN(C)CC5)c(OC)c4)nc32)c1 [Compound 33, N-(3-(2-((3-methoxy-4-(4-methyl-1-piperazinyl)phenyl)amino)-7-oxo-6-(trifluoromethyl)-8(7H)-pteridinyl)phenyl)acrylamide]",1.3,24.5,> 300,33,3.68,0.23
"C=CC(=O)N1CC[C@H](n2c(=O)cnc3cnc(Nc4ccc(N5CCN(C)CC5)c(C)c4)nc32)C1 [Compound 34, (S)-8-(1-acryloyl-3-pyrrolidinyl)-2-((3-methyl-4-(4-methyl-1-piperazinyl)phenyl)amino)-7(8H)pteridinone]",896,223,215.5 to 215.7,86.7,> 10,0.831
"C=CC(=O)N1CC[C@H](n2c(=O)c(-c3ccccc3)nc3cnc(Nc4ccc(N5CCN(C)CC5)c(OC)c4)nc32)C1 [Compound 35, (S)-8-(1-acryloyl-30pyrrolidinyl)-2-((3-methoxy-4(4-methyl-1-piperazinyl)phenyl)amino)-6-phenyl-7(8H)pteridinone]",17.5,63.3,208.3 to 208.8,20.1,0.225,0.378
"Cc1cc(Nc2ncc3nc(C(C)C)c(=O)n([C@H]4CCN(C(=O)/C=C/CN(C)C)C4)c3n2)ccc1N1CCN(C)CC1 [Compound 36, (S,E)-8-(1-(4-(dimethylamino)-2-butenoyl)3-pyrrolidinyl)-2-((3-methyl-4-(4-methyl-1-piperazinyl)phenyl)amino)-6-isopropyl-7(8H)pteridinone]",> 1000,737,159.9 to 160.7,> 1000,9.6,2.2
"C=CC(=O)Nc1cccc(-n2c(=O)c(C(C)C)nc3cnc(Nc4ccc(N5CCN(C)CC5)cc4OC)nc32)c1 [Compound 37, N-(3-(6-isopropyl-2-((2-methoxy-4-(4-methyl-1-piperazinyl)phenyl)amino)-7-oxo-8(7H)pteridinyl)phenyl)acrylamide]",4.9,< 10,,26,3.23,0.074
"C=CC(=O)Nc1cccc(-n2c(=O)c(-c3ccccc3)nc3cnc(Nc4cc(C)c(N5CCN(C)CC5)cc4OC)nc32)c1 [Compound 38, N-(3-(2-((2-methoxy-5-methyl-4-(4-methyl-1-piperazinyl)phenyl)amino)-7-oxo-6-phenyl-8(7H)pteridinonyl)phenyl)acrylamide]",0.6,< 10,292.9 to 293.4,2.8,2.35,0.165
"C=CC(=O)Nc1cccc(-n2c(=O)c(C(C)C)nc3cnc(Nc4cc(C)c(N5CCN(C)CC5)cc4OC)nc32)c1 [Compound 39, N-(3-(6-isopropyl-2-((2-methoxy-5-methyl-4-(4-methyl-1-piperazinyl)phenyl)amino)-7-oxo-8(7H)pteridinyl)phenyl)acrylamide]",82.2,< 10,227.5 to 228.5,130,3.84,0.572
C=CC(=O)N1CC[C@H](n2c(=O)c(-c3ccccc3)nc3cnc(Nc4ccc(N(C)CCN(C)C)c(C)c4)nc32)C1 [Compound 40],73.1,> 10,256.1 to 256.4,> 10000,1.38,1.05
C=CC(=O)N1CC[C@H](n2c(=O)c(-c3ccccc3)nc3cnc(Nc4ccc(N(C)CCN(C)C)c(OC)c4)nc32)C1 [Compound 41],38.6,> 10,260 to 260.2,5350,1.26,1.19
"C=CC(=O)Nc1cccc(-n2c(=O)c(C3CCCCC3)nc3cnc(Nc4ccc(N5CCN(C)CC5)cc4OC)nc32)c1 [Compound 43, N-(3-(6-cyclohexyl-2-((2-methoxy-4-(4-methyl-1-piperazinyl)phenyl)amino)-7-oxo-8(7H)pteridinyl)phenyl)acrylamide]",0.6,< 10,,7.7,0.433,0.112
"C=CC(=O)N1CCC(n2c(=O)c(-c3ccccc3)nc3cnc(Nc4ccc(N5CCN(C)CC5)c(C)c4)nc32)C1 (stereo not drawn) [Compound 49, 8-(1-acryloyl-3-pyrrolidinyl)-2-((3-methyl-4-(4-methyl-1-piperazinyl)phenyl)amino)-6-phenyl-7(8H)pteridinone]",14.2,< 10,,19.2,0.287,0.368
